Assay results taken from ChEMBL document CHEMBL5584338, “Design, Synthesis, and Biological Evaluation of 5-Amino-4-fluoro-1H-benzo[d]imidazole-6-carboxamide Derivatives as Novel and Potential MEK/RAF Complex Inhibitors Based on the "Clamp" Strategy” (J Med Chem, 2024).
The source made the active and inactive calls. The calls are words filed in the database; no cut-off is given here.

Key:
MIA PaCa-2 [1] = experiment: Antiproliferative activity against human MIA PaCa-2 cells harboring KRAS G12C mutant at 0.1 uM incubated for 72 hrs by CCK8 assay relative to control; type: functional
HCT-116 [2] = experiment: Antiproliferative activity against human HCT-116 cells harboring KRAS G13D mutant incubated for 72 hrs by CCK8 assay; type: functional, cell-based; conditions: HCT-116, 72 h
[3] = target: T1, Dual specificity mitogen-activated protein kinase kinase 1 (Homo sapiens, UniProt Q02750); experiment: Inhibition of MEK1 (unknown origin) assessed as remaining activity at 0.1 uM relative to control
MIA PaCa-2 [4] = experiment: Antiproliferative activity against human MIA PaCa-2 cells harboring KRAS G12C mutant incubated for 72 hrs by CCK8 assay; type: functional, cell-based; conditions: MIA PaCa-2, 72 h
[5] = target: T2, Serine/threonine-protein kinase B-raf (Homo sapiens, UniProt P15056); experiment: Inhibition of BRAF (unknown origin) assessed as remaining activity at 0.1 uM relative to control
HCT-116 [6] = experiment: Antiproliferative activity against human HCT-116 cells harboring KRAS G13D mutant at 1 uM incubated for 72 hrs by CCK8 assay relative to control; type: functional
[7] = target: Dual specificity mitogen-activated protein kinase kinase; MEK1/2 (Homo sapiens) (UniProt P36507+Q02750); experiment: Inhibition of MEK phosphorylation in human MIA PaCa-2 cells upto 1 uM incubated for 4 hrs by Western blot analysis; type: cell-based
HeLa = experiment: Antiproliferative activity against human HeLa cells incubated for 72 hrs by CCK8 assay; type: functional, cell-based
[8] = test system: Mitogen-activated protein kinase 1/3 (ERK1/2) (Homo sapiens); experiment: Inhibition of ERK phosphorylation in human MIA PaCa-2 cells upto 1 uM incubated for 4 hrs by Western blot analysis
[9] = target: T1, Dual specificity mitogen-activated protein kinase kinase 1; experiment: Inhibition of MEK1 (unknown origin)
[10] = Stability in human liver microsomes assessed as half life at 200 uM preincubated for 5 mins followed by NADPH addition measured upto 60 mins by LC-MS/MS analysis; type: ADME, Microsome; conditions: time 65 min
[11] = Antiproliferative activity against rat H9c2 cells incubated for 72 hrs by CCK8 assay; type: toxicity, cell-based
[12] = Antiproliferative activity against mouse C26 cells harboring KRAS G12D mutant incubated for 72 hrs by CCK8 assay; type: functional, cell-based, C-26; conditions: C26, 72 h
[13] = target: T2, Serine/threonine-protein kinase B-raf; experiment: Inhibition of BRAF (unknown origin)

T1 sequence (Q02750 whole entry): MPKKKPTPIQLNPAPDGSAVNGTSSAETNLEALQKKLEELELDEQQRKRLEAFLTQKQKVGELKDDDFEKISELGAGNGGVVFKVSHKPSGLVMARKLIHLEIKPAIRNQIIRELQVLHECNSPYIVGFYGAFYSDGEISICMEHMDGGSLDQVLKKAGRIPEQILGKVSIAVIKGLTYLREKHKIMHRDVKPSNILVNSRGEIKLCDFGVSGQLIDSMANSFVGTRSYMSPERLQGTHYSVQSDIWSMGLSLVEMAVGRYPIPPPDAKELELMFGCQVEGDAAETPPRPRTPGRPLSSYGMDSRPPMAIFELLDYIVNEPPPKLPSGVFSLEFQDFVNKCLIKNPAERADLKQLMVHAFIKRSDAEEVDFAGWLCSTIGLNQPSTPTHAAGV
T2 sequence (P15056 whole entry): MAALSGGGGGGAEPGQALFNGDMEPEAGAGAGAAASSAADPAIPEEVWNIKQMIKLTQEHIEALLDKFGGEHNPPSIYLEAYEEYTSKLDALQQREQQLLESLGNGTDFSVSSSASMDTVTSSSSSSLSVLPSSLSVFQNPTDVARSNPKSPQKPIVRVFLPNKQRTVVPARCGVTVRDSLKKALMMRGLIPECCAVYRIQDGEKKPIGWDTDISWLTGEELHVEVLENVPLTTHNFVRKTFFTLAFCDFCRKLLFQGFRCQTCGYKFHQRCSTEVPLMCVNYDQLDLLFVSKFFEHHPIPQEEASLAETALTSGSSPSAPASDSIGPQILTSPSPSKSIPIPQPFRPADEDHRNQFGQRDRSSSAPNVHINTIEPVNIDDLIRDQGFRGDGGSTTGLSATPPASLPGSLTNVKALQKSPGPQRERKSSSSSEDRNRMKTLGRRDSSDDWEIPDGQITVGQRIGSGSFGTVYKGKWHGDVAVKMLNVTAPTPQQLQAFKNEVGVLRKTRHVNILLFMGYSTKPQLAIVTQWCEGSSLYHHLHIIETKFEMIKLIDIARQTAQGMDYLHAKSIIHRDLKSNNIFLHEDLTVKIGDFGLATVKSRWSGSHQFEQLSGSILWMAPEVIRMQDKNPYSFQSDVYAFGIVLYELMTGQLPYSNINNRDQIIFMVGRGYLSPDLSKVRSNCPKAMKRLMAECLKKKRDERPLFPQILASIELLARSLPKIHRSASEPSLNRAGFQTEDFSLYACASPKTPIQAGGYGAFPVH
Sequence of Dual specificity mitogen-activated protein kinase kinase; MEK1/2 (Homo sapiens) (P36507 whole entry, looked up): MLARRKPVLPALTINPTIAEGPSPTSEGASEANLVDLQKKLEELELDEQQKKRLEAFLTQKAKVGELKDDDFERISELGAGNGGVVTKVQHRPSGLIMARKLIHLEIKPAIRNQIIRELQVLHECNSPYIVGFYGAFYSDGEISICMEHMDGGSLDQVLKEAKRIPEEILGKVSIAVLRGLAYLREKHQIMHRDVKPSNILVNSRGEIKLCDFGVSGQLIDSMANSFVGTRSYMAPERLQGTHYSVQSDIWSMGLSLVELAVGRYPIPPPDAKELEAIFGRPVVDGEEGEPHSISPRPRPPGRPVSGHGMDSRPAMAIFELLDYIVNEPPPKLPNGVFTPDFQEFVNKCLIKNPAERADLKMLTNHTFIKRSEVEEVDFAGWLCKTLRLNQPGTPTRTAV
Sequence of Dual specificity mitogen-activated protein kinase kinase; MEK1/2 (Homo sapiens) (Q02750 whole entry, looked up): as the sequence (Q02750 whole entry) above

Row | Structure (SMILES) | inhibition at 0.1 µM (MIA PaCa-2 [1]) [%] | IC50 (HCT-116 [2]) [nM] | Activity [3] [%] | IC50 (MIA PaCa-2 [4]) [nM] | Activity [5] [%] | inhibition at 1 µM (HCT-116 [6]) [%] | other results
1 | CC(C)CNS(=O)(=O)Nc1cccc(Cn2cnc3c(F)c(Nc4ccc(C5CC5)cc4F)c(C(=O)NOCCO)cc32)c1 | 55.8 | 425 | 80 | 48 | 5 | 60.2 | 
2 | CNS(=O)(=O)N1CCCC(Cn2cnc3c(F)c(Nc4ccc(C5CC5)cc4F)c(C(=O)NOCCO)cc32)C1 (stereo not given) | 31.1 |  |  |  |  | -9.58 | 
3 | CCNS(=O)(=O)Nc1cccc(Cn2cnc3c(F)c(Nc4ccc(C5CCCC5)cc4F)c(C(=O)NOCCO)cc32)c1F | 6.88 |  |  |  |  | 26.9 | 
4 | CNS(=O)(=O)Nc1cccc(Cn2cnc3c(F)c(F)c(C(=O)NOCCO)cc32)c1F | 24.7 |  |  |  |  | 14.8 | 
5 | CCC(=O)Nc1cccc(Cn2cnc3c(F)c(Nc4ccc(C5CC5)cc4F)c(C(=O)NOCCO)cc32)c1 | 18 |  | 89 | 985 | 75 | 17.8 | 
6 | CNS(=O)(=O)Nc1nccc(Cc2c(C)c3ccc(Oc4ncccn4)cc3oc2=O)c1F [AVUTOMETINIB] | 59.6 | 739 |  | 115 |  | 56.1 | inhibition [7]: Active
7 | CCNS(=O)(=O)Nc1cccc(Cn2cnc3c(F)c(Nc4ccc(C)cc4F)c(C(=O)NOCCO)cc32)c1F | 55.7 | 457 | 54 | 219 | 4 | 57.6 | 
8 | Cn1cnc2c(F)c(Nc3ccc(Br)cc3F)c(C(=O)NOCCO)cc21 [BINIMETINIB] | 58.8 | 2000 |  | 182 |  | 41.4 | 
9 | CNS(=O)(=O)Nc1cccc(Cn2cnc3c(F)c(Nc4ccc(C)cc4F)c(C(=O)NOCCO)cc32)c1F | 57.7 | 694 | 58 | 861 | 3 | 74.8 | 
10 | CCNS(=O)(=O)Nc1cccc(Cn2cnc3c(F)c(Nc4ccc(I)cc4F)c(C(=O)NOCCO)cc32)c1F | 65.3 | 202 | 8 | 43 | 1 | 69.1 | 
11 | CCNS(=O)(=O)Nc1cccc(Cn2cnc3c(F)c(Nc4ccc(C5CCC5)cc4F)c(C(=O)NOCCO)cc32)c1F | 29 |  | 84 | 942 | 4 | 56.2 | 
12 | CCNS(=O)(=O)Nc1ccc(F)c(Cn2cnc3c(F)c(Nc4ccc(C5CC5)cc4F)c(C(=O)NOCCO)cc32)c1 | -38.8 |  |  |  |  | 17.5 | 
13 | CNS(=O)(=O)Nc1cccc(Cn2cnc3c(F)c(Nc4ccc(I)cc4F)c(C(=O)NOCCO)cc32)c1F | 62 | 74 | 9 | 71 | -2 | 64.8 | inhibition [7]: Active; IC50 (HeLa): > 10 µM; inhibition [8]: Active; IC50 [9]: 8 nM; half-life at 200 µM [10]: 25 min; IC50 at 72 h [11]: > 50 µM; IC50 [12]: 11 nM; IC50 [13]: 4 nM
14 | CCNS(=O)(=O)Nc1cccc(Cn2cnc3c(F)c(Nc4ccc(Br)cc4F)c(C(=O)NOCCO)cc32)c1F | 22.8 | 150 | 20 | 362 | 2 | 65.1 | 
15 | CNS(=O)(=O)Nc1cccc(Cn2cnc3c(F)c(Nc4ccc(Br)cc4F)c(C(=O)NOCCO)cc32)c1F | 35.7 | 113 | 16 | 225 | 3 | 60.3 | 
16 | O=C(NOCCO)c1cc2c(ncn2Cc2cccc(NC(=O)C3CCC3)c2)c(F)c1Nc1ccc(C2CC2)cc1F | 38.9 |  | 76 | 1280 | 32 | 25.1 | 
17 | O=C(NOCCO)c1cc2c(ncn2Cc2cccc(NC(=O)C3CCCC3)c2)c(F)c1Nc1ccc(C2CC2)cc1F | -29.7 |  | 91 |  | 71 | 4.21 | 
18 | CNS(=O)(=O)Nc1cccc(Cn2cnc3c(F)c(Nc4ccc(Br)cc4F)c(C(=O)NOCCO)cc32)c1Cl | 28.4 |  | 15 |  | 3 | 47.8 | 
19 | CCNS(=O)(=O)Nc1cc(Cn2cnc3c(F)c(Nc4ccc(C5CC5)cc4F)c(C(=O)NOCCO)cc32)ccc1F | 34.5 |  |  |  |  | 17.5 | 

Row | Structure (SMILES) | inhibition at 0.1 µM (MIA PaCa-2 [1]) [%] | IC50 (HCT-116 [2]) [nM] | Activity [3] [%] | IC50 (MIA PaCa-2 [4]) [nM] | Activity [5] [%] | inhibition at 1 µM (HCT-116 [6]) [%] | other results
20 | CCNS(=O)(=O)Nc1cccc(Cn2cnc3c(F)c(Nc4ccc(Br)cc4F)c(C(=O)NOCCO)cc32)c1Cl | 21.9 |  |  |  |  | 39.8 | 
21 | CNS(=O)(=O)N1CCC(Cn2cnc3c(F)c(Nc4ccc(C5CC5)cc4F)c(C(=O)NOCCO)cc32)C1 (stereo not given) | -13.4 |  |  |  |  | 2.43 | 
22 | CS(=O)(=O)Nc1cccc(Cn2cnc3c(F)c(Nc4ccc(C5CC5)cc4F)c(C(=O)NOCCO)cc32)c1 | 50.5 |  | 75 | 138 | 6 | 46.2 | 
23 | CC(=O)Nc1cccc(Cn2cnc3c(F)c(Nc4ccc(C5CC5)cc4F)c(C(=O)NOCCO)cc32)c1 | 64.8 |  | 75 | 237 | 22 | 33.3 | inhibition [8]: Active
24 | CCNS(=O)(=O)Nc1cccc(Cn2cnc3c(F)c(F)c(C(=O)NOCCO)cc32)c1F | 6.04 |  |  |  |  | 10.8 | 
25 | CC(C)NS(=O)(=O)Nc1cccc(Cn2cnc3c(F)c(Nc4ccc(C5CC5)cc4F)c(C(=O)NOCCO)cc32)c1 | 65.9 | 132 | 55 | 150 | 4 | 59.3 | 
26 | CNS(=O)(=O)Nc1ccc(F)c(Cn2cnc3c(F)c(Nc4ccc(C5CC5)cc4F)c(C(=O)NOCCO)cc32)c1 | 7.1 |  | 79 |  | 21 | 12 | 
27 | CNS(=O)(=O)Nc1cc(Cn2cnc3c(F)c(Nc4ccc(C5CC5)cc4F)c(C(=O)NOCCO)cc32)ccc1F | 31.6 |  | 85 | 611 | 16 | 35.2 | 
28 | CNS(=O)(=O)Nc1cccc(Cn2cnc3c(F)c(Nc4ccc(C5CC5)cc4F)c(C(=O)NOCCO)cc32)c1Cl | 62.6 | 626 | 19 | 169 | 3 | 55.6 | 
29 | CNS(=O)(=O)Nc1cccc(Cn2cnc3c(F)c(Nc4ccc(I)cc4F)c(C(=O)NOCCO)cc32)c1Cl | 60.8 | 352 | 5 | 60 | 1 | 66.7 | 
30 | CCNS(=O)(=O)Nc1cccc(Cn2cnc3c(F)c(Nc4ccc(I)cc4F)c(C(=O)NOCCO)cc32)c1Cl | 43.1 | 377 | 9 | 127 | 0 | 61.4 | 
31 | CCNS(=O)(=O)Nc1cccc(Cn2cnc3c(F)c(Nc4ccc(C5CC5)cc4F)c(C(=O)NOCCO)cc32)c1Cl | 76 | 731 | 20 | 31 | 3 | 49.6 | 
32 | CNS(=O)(=O)Nc1cccc(Cn2cnc3c(F)c(Nc4ccc(C5CCCC5)cc4F)c(C(=O)NOCCO)cc32)c1F | 12.1 |  | 98 |  | 13 | 24.8 | 
33 | CNS(=O)(=O)Nc1cc(F)cc(Cn2cnc3c(F)c(Nc4ccc(C5CC5)cc4F)c(C(=O)NOCCO)cc32)c1 | 65.8 | 173 | 53 | 47 | 5 | 57.4 | 
34 | CNS(=O)(=O)Nc1cccc(Cn2cnc3c(F)c(Nc4ccc(C5CCC5)cc4F)c(C(=O)NOCCO)cc32)c1F | 52.8 | 898 | 76 | 249 | 5 | 48.5 | 
35 | CCNS(=O)(=O)Nc1cc(F)cc(Cn2cnc3c(F)c(Nc4ccc(C5CC5)cc4F)c(C(=O)NOCCO)cc32)c1 | 76.5 | 140 | 59 | 32 | 5 | 56.7 | 
36 | O=C(NOCCO)c1cc2c(ncn2Cc2cccc(NC(=O)C3CCCCC3)c2)c(F)c1Nc1ccc(C2CC2)cc1F | 11.5 |  | 88 |  | 35 | 13.7 | 
37 | O=C(NOCCO)c1cc2c(ncn2Cc2cccc(NC(=O)C3CC3)c2)c(F)c1Nc1ccc(C2CC2)cc1F | 45 |  |  | 628 |  | 19.3 | 
38 | CNS(=O)(=O)Nc1cccc(Cn2cnc3c(F)c(Nc4ccc(C5CC5)cc4F)c(C(N)=O)cc32)c1 | 15.8 |  |  |  |  | 21.9 | IC50 [9]: > 2000 nM
